Where only a bound is given, the exact number is not on record here.

Common to all, as to format: functional
Experiment [1] has as its system MCF7. The experiment is described as follows: Antiproliferative activity against human MCF7 cells assessed as inhibition of cell growth incubated for 96 hrs by MTT based ELISA. The conditions noted are these: MCF7, 96 h. For orientation: In an ELISA, binding on a coated surface is turned into a signal by an enzyme label.
The subject of experiment [2] is MDA-MB-231. The experiment in a line: Antiproliferative activity against human MDA-MB-231 cells assessed as inhibition of cell growth incubated for 96 hrs by MTT based ELISA. To be noted: MDA-MB-231, 96 h.
The subject of experiment [3] is PC-3. The experiment is described as follows: Antiproliferative activity against human PC-3 cells assessed as inhibition of cell growth incubated for 96 hrs by MTT based ELISA. To be noted: PC-3, 96 h.
The subject of experiment [4] is HCT-116. The experiment in a line: Antiproliferative activity against human HCT-116 cells assessed as inhibition of cell growth incubated for 96 hrs by MTT based ELISA. To be noted: HCT-116, 96 h.
For experiment [5], the system named is NCI-H2228. The experiment in a line: Antiproliferative activity against human NCI-H2228 cells assessed as inhibition of cell growth incubated for 96 hrs by MTT based ELISA. The conditions noted are these: NCI-H2228, 96 h.
In experiment [6] the test system is Huh-7. The experiment in a line: Antiproliferative activity against human Huh-7 cells assessed as inhibition of cell growth incubated for 96 hrs by MTT based ELISA. To be noted: Huh-7, 96 h.

Broadly, the IC50 is the concentration that inhibits the measured activity by half. Turning to `COc1ccc2c(c1)c1nc(Cl)c3ccccc3c1n2CCCn1c(=O)c(F)cn([C@@H]2O[C@H](CO)[C@@H](O)[C@H]2O)c1=O`, the IC50 in experiment [1], in experiment [2], in experiment [3], in experiment [4], in experiment [5] and in experiment [6] was greater than 10 µM each time.

In the case of `COc1ccc2c(c1)c1[nH]c(=O)c3ccccc3c1n2CCCN(C)C`, the half-inhibitory concentration (IC50) stood at 1.41 µM in experiment [1]; 1.92 µM in experiment [2]; 1.32 µM in experiment [3]; 0.55 µM in experiment [4]; 2.03 µM in experiment [5]; 2.55 µM in experiment [6].

For `COc1ccc2c(c1)c1nc(Cl)c3ccccc3c1n2CCCN1CCC(N(C)C)CC1`, the IC50 in experiment [1] was 2.96 µM; in experiment [2], 4.1 µM; in experiment [3], 2.7 µM; in experiment [4] it was 2.55 µM; in experiment [5] it was 2.73 µM; in experiment [6], 4.36 µM.

Turning to `O=C(CCCn1c2ccc(OC(F)F)cc2c2ncc3ccccc3c21)NO`, the IC50 in experiment [1] came out at 5.71 µM; in experiment [2], 2.38 µM; in experiment [3] it was 4.3 µM; in experiment [4] it was 4.07 µM; in experiment [5], 3.74 µM; in experiment [6], 3.37 µM.

Regarding `CC(C)Oc1ccc2c(c1)c1[nH]c(=O)c3ccccc3c1n2CCCN(C)C`, the IC50 in experiment [1] is greater than 10 µM; in experiment [2] it was 5.6 µM; in experiment [3], 4.91 µM; in experiment [4], 2.26 µM; in experiment [5] it was 2.56 µM; in experiment [6], 6.74 µM.

Regarding `CCOc1ccc2c(c1)c1nc(Cl)c3ccccc3c1n2CCCC(=O)NO`, the IC50 in experiment [1] was found to be 3.73 µM; in experiment [2] it was 1.92 µM; in experiment [3], 2.58 µM; in experiment [4] it was 1.8 µM; in experiment [5], 4.66 µM; in experiment [6], 3.92 µM.

Turning to `COc1ccc2c(c1)c1nc(Cl)c3ccccc3c1n2CCCN1CCC(CO)CC1`, the IC50 in experiment [1], in experiment [2], in experiment [3], in experiment [4], in experiment [5] and in experiment [6] was greater than 10 µM in each case.

Regarding `COc1ccc2c(c1)c1nc(Cl)c3ccccc3c1n2CCCN1C(=O)CC(C)(C)CC1=O`, the IC50 in experiment [1], in experiment [2], in experiment [3], in experiment [4], in experiment [5] and in experiment [6] was greater than 10 µM throughout.

Consider `O=C(CCCn1c2ccc(OC(F)F)cc2c2nc(Cl)c3ccccc3c21)NO`, for which the IC50 in experiment [1] is 4.35 µM; in experiment [2], 3.69 µM; in experiment [3], 4.11 µM; in experiment [4] it was 2.5 µM; in experiment [5] it was 5.31 µM; in experiment [6], 4.13 µM.

`COc1ccc2c(c1)c1nc(Cl)c3ccccc3c1n2CCCn1c(=O)[nH]cc(F)c1=O`: the IC50 in experiment [1], in experiment [2], in experiment [3], in experiment [4], in experiment [5] and in experiment [6] was greater than 10 µM throughout.

Take `COc1ccc2c(c1)c1nc(Cl)c3ccccc3c1n2CCCN1CCC[C@@H]1CO`: the IC50 in experiment [1], in experiment [2], in experiment [3], in experiment [4], in experiment [5] and in experiment [6] was greater than 10 µM throughout.

`CN(C)CCCn1c2ccccc2c2[nH]c(=O)c3ccccc3c21`: the IC50 in experiment [1] is 6.84 µM; in experiment [2], 5.9 µM; in experiment [3], 4.38 µM; in experiment [4] it was 4.05 µM; in experiment [5], 7.03 µM; in experiment [6] it was greater than 10 µM.

For `COc1ccc2c(c1)c1nc(Cl)c3ccccc3c1n2CCCn1cnc(C)c1`, the IC50 in experiment [1], in experiment [2], in experiment [3], in experiment [4], in experiment [5] and in experiment [6] was greater than 10 µM throughout.

Take `COc1ccc2c(c1)c1nc(Cl)c3ccccc3c1n2CCCN1CCN(C)CC1`: the 50% inhibitory concentration (IC50) was found to be 1.36 µM in experiment [1]; 2.24 µM in experiment [2]; 0.82 µM in experiment [3]; 1.65 µM in experiment [4]; 2.41 µM in experiment [5]; 3.31 µM in experiment [6].

Consider `COc1ccc2c(c1)c1nc(Cl)c3ccccc3c1n2CCCn1cc(C)nc1C`, for which the IC50 in experiment [1], in experiment [2], in experiment [3], in experiment [4], in experiment [5] and in experiment [6] was greater than 10 µM each time.

`COc1ccc2c3nc(Cl)c4ccccc4c3n(CCCC(=O)NO)c2c1`: the IC50 in experiment [1] was 4.6 µM; in experiment [2] it was 3.06 µM; in experiment [3], 3.7 µM; in experiment [4], 2.7 µM; in experiment [5] it was 4.55 µM; in experiment [6], greater than 10 µM.

Consider `COc1ccc2c(c1)c1nc(Cl)c3ccccc3c1n2CCCN1CCC[C@@H](O)C1`, for which the IC50 in experiment [1], in experiment [2], in experiment [3], in experiment [4], in experiment [5] and in experiment [6] was greater than 10 µM in each case.

Regarding `COc1ccc2c(c1)c1nc(Cl)c3ccccc3c1n2CCCN1CCOCC1`, the IC50 in experiment [1], in experiment [2], in experiment [3], in experiment [4], in experiment [5] and in experiment [6] was greater than 10 µM each time.

Consider `COc1ccc2c(c1)c1nc(Cl)c3ccccc3c1n2CCCN(C)C`, for which the IC50 in experiment [1] is 1.64 µM; in experiment [2], 1.2 µM; in experiment [3], 1.22 µM; in experiment [4] it was 0.82 µM; in experiment [5], 1.28 µM; in experiment [6], 1.77 µM.

For `CCOc1ccc2c(c1)c1ncc3ccccc3c1n2CCCC(=O)NO`, the IC50 in experiment [1] amounted to 0.97 µM; in experiment [2] it was 0.8 µM; in experiment [3] it was 1.55 µM; in experiment [4], 1.38 µM; in experiment [5] it was 3.06 µM; in experiment [6], 3.41 µM.

In the case of `COc1ccc2c(c1)c1nc(Cl)c3ccccc3c1n2CCCNc1ccn([C@H]2C[C@H](O)[C@@H](CO)O2)c(=O)n1`, the IC50 in experiment [1], in experiment [2], in experiment [3], in experiment [4], in experiment [5] and in experiment [6] was greater than 10 µM throughout.

With `COc1ccc2c(c1)c1nc(Cl)c3ccccc3c1n2CCCN1CCN(C(C)C)CC1`, the half-inhibitory concentration (IC50) in experiment [1] stood at 1.76 µM; in experiment [2], 2.52 µM; in experiment [3], 1.12 µM; in experiment [4], 1.79 µM; in experiment [5] it was 2.36 µM; in experiment [6] it was 2.26 µM.

Regarding `COc1ccc2c(c1)c1ncc3ccccc3c1n2CCCN(C)C`, the IC50 was 1.45 µM in experiment [1]; 1.09 µM in experiment [2]; 1.01 µM in experiment [3]; 0.62 µM in experiment [4]; 1.05 µM in experiment [5]; 1.5 µM in experiment [6].

As to `CN(C)CCCn1c2ccccc2c2nc(Cl)c3ccccc3c21`, the IC50 in experiment [1] was 2.75 µM; in experiment [2], 1.95 µM; in experiment [3], 2.67 µM; in experiment [4], 1.33 µM; in experiment [5], 1.51 µM; in experiment [6], 2.99 µM.

As to `CC(C)Oc1ccc2c(c1)c1ncc3ccccc3c1n2CCCC(=O)NO`, the IC50 turned out to be 4.56 µM in experiment [1]; 1.78 µM in experiment [2]; 2.57 µM in experiment [3]; 2.14 µM in experiment [4]; 4.86 µM in experiment [5]; 4.43 µM in experiment [6].

For the compound `COc1ccc2c(c1)c1nc(Cl)c3ccccc3c1n2CCCN1CCCC(O)C1` (stereo unspecified), the IC50 in experiment [1] turned out to be 3.61 µM; in experiment [2], 5.04 µM; in experiment [3], 3.26 µM; in experiment [4] it was 3.68 µM; in experiment [5], 3.1 µM; in experiment [6], 4.57 µM.

For the compound `COc1ccc2c(c1)c1nc(Cl)c3ccccc3c1n2CCCN1CC[C@@H](O)C1`, the IC50 in experiment [1], in experiment [2], in experiment [3], in experiment [4], in experiment [5] and in experiment [6] was greater than 10 µM in each case.

On to `COc1ccc2c(c1)c1nc(Cl)c3ccccc3c1n2CCCNc1ccn([C@@H]2O[C@H](CO)[C@@H](O)[C@@H]2O)c(=O)n1`, for which the IC50 in experiment [1], in experiment [2], in experiment [3], in experiment [4], in experiment [5] and in experiment [6] was greater than 10 µM each time.

As to `COc1ccc2c3nc(Cl)c4ccccc4c3n(CCCN(C)C)c2c1`, the IC50 in experiment [1] came to 1.83 µM; in experiment [2] it was 1.36 µM; in experiment [3] it was 1.65 µM; in experiment [4] it was 0.96 µM; in experiment [5], 1.5 µM; in experiment [6], 2.49 µM.

`COc1ccc2c(c1)c1nc(Cl)c3ccccc3c1n2CCCNc1nc(=O)n([C@@H]2O[C@H](CO)[C@@H](O)[C@H]2O)cc1F`: the half-inhibitory concentration (IC50) in experiment [1], in experiment [2], in experiment [3], in experiment [4], in experiment [5] and in experiment [6] was greater than 10 µM each time.

With `O=C(CCCn1c2ccccc2c2nc(Cl)c3ccccc3c21)NO`, the IC50 turned out to be 3.87 µM in experiment [1]; 2.98 µM in experiment [2]; 3.14 µM in experiment [3]; 2.87 µM in experiment [4]; 4.28 µM in experiment [5]; 5.76 µM in experiment [6].

The values are drawn from ChEMBL document CHEMBL5576135, “Discovery of Indolo[3,2-c]isoquinoline Derivatives as Novel Top1/2 Dual Inhibitors with Orally Efficacious Antitumor Activity and Low Toxicity” (J Med Chem, 2024).
